Results as given in patent US20180155386A1, “PROGESTERONE ANTAGONISTS” (Evestra, Inc., priority 2011, published 2018).

How the values were obtained:
[1] = test system: uterine weight of non-pregnant guinea pigs; experiment: Uterine weights of guinea pigs; format: in vivo; conditions: 10 mg s.c. from day 10 of cycle; sacrifice day 18; untreated guinea pig 1.2 g; higher than 1.2 g indicates pure progesterone antagonistic activity
Description: 3 Non-pregnant guinea pigs in the luteal phase of the cycle will be treated with 10 mg of the compound subcutaneously beginning on day 10 of the cycle. Animals were sacrificed on day 18 after the start of the treatment and the uterine weights were obtained at the time of sacrifice. Comparisons will be made to onapristone-treated animals at 10 mg/animal/day s.c

[2] = target: T1, progesterone receptor (Homo sapiens, UniProt P06401); conditions: background statement in words; cited from earlier work
T1 sequence (P06401 1-933): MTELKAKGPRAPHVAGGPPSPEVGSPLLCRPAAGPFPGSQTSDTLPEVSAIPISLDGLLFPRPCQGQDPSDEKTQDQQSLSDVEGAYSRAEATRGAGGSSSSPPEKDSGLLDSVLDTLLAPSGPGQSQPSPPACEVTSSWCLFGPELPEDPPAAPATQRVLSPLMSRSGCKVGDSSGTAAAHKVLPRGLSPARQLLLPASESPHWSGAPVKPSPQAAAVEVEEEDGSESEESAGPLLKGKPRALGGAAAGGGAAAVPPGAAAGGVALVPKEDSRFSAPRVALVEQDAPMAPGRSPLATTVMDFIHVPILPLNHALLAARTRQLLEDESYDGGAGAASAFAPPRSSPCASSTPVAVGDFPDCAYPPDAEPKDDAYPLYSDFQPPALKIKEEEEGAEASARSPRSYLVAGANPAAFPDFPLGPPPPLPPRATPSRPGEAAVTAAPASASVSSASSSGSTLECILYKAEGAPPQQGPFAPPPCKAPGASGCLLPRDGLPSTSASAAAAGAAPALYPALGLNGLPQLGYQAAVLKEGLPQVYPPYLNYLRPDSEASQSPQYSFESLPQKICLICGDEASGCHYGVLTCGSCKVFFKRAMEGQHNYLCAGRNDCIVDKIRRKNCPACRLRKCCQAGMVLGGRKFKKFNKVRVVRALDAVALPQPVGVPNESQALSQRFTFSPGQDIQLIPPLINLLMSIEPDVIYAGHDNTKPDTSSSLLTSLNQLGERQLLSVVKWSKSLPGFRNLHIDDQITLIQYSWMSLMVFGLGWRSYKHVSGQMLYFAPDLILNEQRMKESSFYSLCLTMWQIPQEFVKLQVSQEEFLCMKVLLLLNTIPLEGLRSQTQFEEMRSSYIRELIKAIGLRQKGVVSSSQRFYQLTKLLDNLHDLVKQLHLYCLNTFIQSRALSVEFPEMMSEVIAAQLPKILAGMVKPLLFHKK

[3] = target: T2, glucocorticoid receptor (Homo sapiens, UniProt P04150); conditions: background statement in words; cited from earlier work
T2 sequence (P04150 1-777): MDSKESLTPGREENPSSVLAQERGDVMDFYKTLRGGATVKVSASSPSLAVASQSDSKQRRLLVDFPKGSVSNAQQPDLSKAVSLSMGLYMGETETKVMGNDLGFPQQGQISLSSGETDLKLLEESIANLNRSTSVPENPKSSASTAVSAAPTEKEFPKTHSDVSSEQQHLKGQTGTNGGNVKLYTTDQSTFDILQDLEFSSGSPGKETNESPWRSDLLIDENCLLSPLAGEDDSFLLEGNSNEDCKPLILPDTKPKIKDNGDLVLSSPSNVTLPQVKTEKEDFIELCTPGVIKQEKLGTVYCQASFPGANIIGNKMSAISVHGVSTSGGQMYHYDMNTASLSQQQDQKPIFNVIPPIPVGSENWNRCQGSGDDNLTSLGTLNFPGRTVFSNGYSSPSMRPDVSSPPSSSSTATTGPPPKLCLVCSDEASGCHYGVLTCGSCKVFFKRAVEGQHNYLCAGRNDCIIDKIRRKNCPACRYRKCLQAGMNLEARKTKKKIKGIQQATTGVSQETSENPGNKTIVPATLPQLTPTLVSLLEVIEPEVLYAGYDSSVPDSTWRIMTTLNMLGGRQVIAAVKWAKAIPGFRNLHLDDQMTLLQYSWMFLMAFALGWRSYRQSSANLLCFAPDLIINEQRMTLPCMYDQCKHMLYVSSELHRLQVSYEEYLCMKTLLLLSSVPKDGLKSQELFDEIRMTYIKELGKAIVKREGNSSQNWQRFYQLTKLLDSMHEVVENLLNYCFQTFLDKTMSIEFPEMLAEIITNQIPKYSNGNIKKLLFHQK

[4] = target: T3, progesterone receptor-LBD-UAS-bla HEK 293T cells (Homo sapiens, UniProt P06401); experiment: Progesterone Antagonist Screen (GeneBLAzer Beta-lactamase reporter, activated by control agonist R5020); format: cell-based; conditions: values relative to RU486, which is 100%; HEK 293T reporter cells, agonist R5020 at EC80
T3 construct: host or cells: HEK 293T
T3 sequence (P06401 679-913 limits assumed): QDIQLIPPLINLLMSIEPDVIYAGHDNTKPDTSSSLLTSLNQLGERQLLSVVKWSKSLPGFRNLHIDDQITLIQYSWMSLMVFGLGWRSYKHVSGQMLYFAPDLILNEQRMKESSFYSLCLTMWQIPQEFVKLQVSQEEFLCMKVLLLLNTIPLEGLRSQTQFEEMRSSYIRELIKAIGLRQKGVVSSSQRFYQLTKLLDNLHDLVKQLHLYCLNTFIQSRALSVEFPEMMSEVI
Description: Determination of the agonist/antagonist nature of the test compounds was carried out using Invitrogen's SelectScreen™ Cell-based nuclear receptor profiling service which uses the GeneBLAzer® Beta-lactamase reporter technology. Basically this assay uses a Beta-lactamase cDNA under transcriptional control of an Upstream Activator Sequence (UAS). The UAS is activated by the GAL4 transcription factor DNA binding domain (DBD), which is expressed as a fusion protein with the target receptor ligand binding domain (LBD). Upon ligand binding, the GAL4(DBD)-NR(LDB) binds to the UAS, which controls transcription of Beta-lactamase. Beta-lactamase cleaves a special engineered fluorescent substrate which results in a change in the measured fluorescence wavelength.
The generalized protocol used for the Progesterone Antagonist Screen, activated by control Agonist R5020 is as follows:
The progesterone receptor-LBD-UAS-bla HEK 293T cells are thawed and prepared as described above for the Agonist screen. 4 μL of a 10× serial dilution of control antagonist RU-486 (starting concentration, 100 nM) or test compounds are added to appropriate wells of a TC-Treated assay plate. 32 μL of cell suspension is added to the wells which is then pre-incubated at 37° C./5% CO2 in a humidified incubator with test compounds and control antagonist titration for 30 minutes. 4 μL of a 10× control agonist (see above) at the predetermined EC80 concentration is added to wells containing the control antagonist or test compounds. The plate is incubated for 16-24 hours at 37° C./5% CO2 in a humidified incubator. 8 μL of 1 μM Substrate Loading Solution is added to each well and the plate is incubated for 2 hours at room temperature. The plate is then read on a fluorescence plate reader (Tecan Safire).

[5] = test system: human breast cancer cell line T47D; experiment: In vitro antiproliferative activity in human breast cancer cell line T47D (MTT); format: cell-based; conditions: 168 h, T47D cells, 7 days after cell seeding
Description: Cells from frozen stock were expanded in T75 cell culture flasks. For the experiment, cells in the logarithmic growth phase (70% confluent) were cultivated for 3 day without estradiol and then washed with PBS, detached by trypsination and suspended in 5 ml of fresh RPMI-1640 medium. Cells were centrifuged for 5 min at 1000 rpm and the pellet was resuspended in RPMI-1640 medium.
Cells were seeded in 96-well plates with a density of 5000 cells/well/in 0.18 mL RPMI-1640 medium. Cells were allowed to attach for 24 h. Visual control for viability at 24 h and cell culture medium change. At this time point, compounds were added in 20 μl to the final concentration. After 3 days medium and compounds where changed again. Finally, 7 days after cell seeding, 20 μl MTT-solution was added to each well and 4 h later the formed tetrazolium salt was measured with a photometer.

Row | SMILES | Uterine Weights of Guinea Pigs Treated with antiprogestins (grams) [1] [grams] | antiprogestagenic activity / progesterone antagonism [2] | antiglucocorticoid effects / glucocorticoid receptor antagonism [3] | Emax [4] [%] | IC50 [5] [nM]
1 | CC#C[C@]1(O)CC[C@H]2[C@@H]3CCC4=CC(=O)CCC4=C3[C@@H](c3ccc(N(C)C)cc3)C[C@@]21C [RU 486, Mifepristone] | 1.81 | potent progesterone antagonist | overt glucocorticoid receptor antagonism |  | 
2 | CC(=O)c1ccc([C@H]2C[C@@]3(C)[C@@H](CC[C@@]3(O)C(F)(F)C(F)(F)F)[C@@H]3CCC4=CC(=O)CCC4=C32)cc1 [ZK 230211, Lonaprisan, reference compound] |  | high antiprogestagenic activity | only marginal antiglucocorticoid effects | 81 | 0.3
